From patent US11560596B2, “Method for expecting and diagnosing UQCRB-related disease” (Industry-Academic Cooperation Foundation, Yonsei University, priority 2015, dated 2023)

Test system: UQCRB mutant cell strains MT1 and MT2
Test: MTT colorimetric assay of cell growth after treatment with cholesterol synthesis inhibitors
Type: cell-based
Details: FIGS. 11 to 13
Source text: FIG. 11 represents MTT colorimetric assay showing the cell growth of HEK293, MT1, and MT2 cells treated with a cholesterol inhibitor.
FIG. 12 represents MTT colorimetric assay showing the cell growth of HEK293, MT1, and MT2 cells treated with a cholesterol inhibitor.
FIG. 13 represents MTT colorimetric assay showing the cell growth of HEK293, MT1, and MT2 cells treated with a cholesterol inhibitor.
For the purpose of verifying validity for selection of cholesterol metabolic process as a pathway in which UQCRB was participated, a cholesterol synthesis inhibitor was processed in UQCRB mutant cell strains to measure an effect that the cholesterol synthesis inhibitor affects growth of the UQCRB mutant cell strains, and the result thereof was shown in FIGS. 11 to 13.

With `F/C(COc1ccc2c(c1)[nH]c1ccccc12)=C1/CN2CCC1CC2` [YM-53601] the “growth of the UQCRB mutant cell strains MT1 and MT2” value was “inhibited”.

For `CC[C@H](C)C(=O)O[C@H]1CCC=C2C=C[C@H](C)[C@H](CC[C@@H]3C[C@@H](O)CC(=O)O3)[C@H]21` [Mevastatin], the “growth of the UQCRB mutant cell strains MT1 and MT2” value was “inhibited”.
